Data set [1] can be described thus: Stability of compound assessed as porcine liver esterase mediated propofol release by measuring half life at 1 mg/ml by HPLC analysis. In kind it is ADME, Sus scrofa. As to conditions: pig, isolated protein.
The target of data set [2] is T1, Sodium channel protein type 10 subunit alpha (Homo sapiens, UniProt Q9Y5Y9). The data set can be described thus: Inhibition of Nav1.8 channel (unknown origin) at -120 mV conditioning pulse by voltage clamp electrophysiological recording.
T1 sequence (Q9Y5Y9 whole entry, looked up): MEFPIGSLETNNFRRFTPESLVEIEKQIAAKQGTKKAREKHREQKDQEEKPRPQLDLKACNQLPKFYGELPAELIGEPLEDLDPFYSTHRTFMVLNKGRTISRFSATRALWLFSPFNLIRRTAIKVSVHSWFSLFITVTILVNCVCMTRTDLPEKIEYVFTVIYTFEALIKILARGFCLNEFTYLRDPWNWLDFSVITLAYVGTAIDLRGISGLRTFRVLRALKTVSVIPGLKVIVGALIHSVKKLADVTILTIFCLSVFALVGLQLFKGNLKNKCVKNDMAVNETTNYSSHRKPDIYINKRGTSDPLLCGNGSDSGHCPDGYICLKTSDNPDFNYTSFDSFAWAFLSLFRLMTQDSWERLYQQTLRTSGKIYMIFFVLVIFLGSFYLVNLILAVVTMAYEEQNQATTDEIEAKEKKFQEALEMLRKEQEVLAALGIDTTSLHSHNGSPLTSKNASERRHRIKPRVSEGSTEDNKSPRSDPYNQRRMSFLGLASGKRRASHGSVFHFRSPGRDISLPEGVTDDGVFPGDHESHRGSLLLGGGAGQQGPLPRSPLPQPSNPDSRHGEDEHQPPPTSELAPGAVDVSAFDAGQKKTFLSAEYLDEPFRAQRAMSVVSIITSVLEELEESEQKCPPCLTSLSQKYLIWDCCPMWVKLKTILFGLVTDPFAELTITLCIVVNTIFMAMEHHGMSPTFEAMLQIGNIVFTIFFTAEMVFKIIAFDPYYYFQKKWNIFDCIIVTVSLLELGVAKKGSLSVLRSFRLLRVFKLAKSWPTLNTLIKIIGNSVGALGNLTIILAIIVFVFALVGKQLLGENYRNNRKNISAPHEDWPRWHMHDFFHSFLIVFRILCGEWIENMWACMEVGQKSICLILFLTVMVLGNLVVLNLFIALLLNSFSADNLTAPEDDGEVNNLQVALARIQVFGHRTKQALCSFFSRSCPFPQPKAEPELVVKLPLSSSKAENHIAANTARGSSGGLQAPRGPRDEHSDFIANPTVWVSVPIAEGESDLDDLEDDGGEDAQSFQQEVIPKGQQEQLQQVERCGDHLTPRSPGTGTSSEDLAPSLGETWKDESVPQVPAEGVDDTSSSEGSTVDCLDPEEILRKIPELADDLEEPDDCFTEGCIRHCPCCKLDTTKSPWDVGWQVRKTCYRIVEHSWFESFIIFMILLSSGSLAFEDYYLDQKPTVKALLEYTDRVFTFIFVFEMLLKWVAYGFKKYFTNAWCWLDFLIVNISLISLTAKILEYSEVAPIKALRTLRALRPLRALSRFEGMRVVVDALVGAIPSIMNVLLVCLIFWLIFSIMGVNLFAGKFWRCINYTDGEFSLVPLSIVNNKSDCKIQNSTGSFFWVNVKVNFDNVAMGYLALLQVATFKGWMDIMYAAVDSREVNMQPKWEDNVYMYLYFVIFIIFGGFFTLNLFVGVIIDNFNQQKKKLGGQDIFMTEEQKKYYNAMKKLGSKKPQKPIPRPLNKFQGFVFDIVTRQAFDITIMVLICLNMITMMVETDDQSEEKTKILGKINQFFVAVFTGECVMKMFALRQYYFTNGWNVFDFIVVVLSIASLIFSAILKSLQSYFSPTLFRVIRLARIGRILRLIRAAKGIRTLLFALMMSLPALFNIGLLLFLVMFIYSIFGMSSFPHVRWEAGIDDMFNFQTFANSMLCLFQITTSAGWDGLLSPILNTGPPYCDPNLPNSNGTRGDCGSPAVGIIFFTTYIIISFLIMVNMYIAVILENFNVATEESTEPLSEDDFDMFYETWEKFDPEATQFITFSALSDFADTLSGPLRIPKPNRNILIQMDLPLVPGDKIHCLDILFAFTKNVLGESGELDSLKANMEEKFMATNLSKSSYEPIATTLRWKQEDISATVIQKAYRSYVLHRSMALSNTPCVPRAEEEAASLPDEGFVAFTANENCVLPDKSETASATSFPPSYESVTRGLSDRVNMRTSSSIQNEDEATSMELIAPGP
For data set [3], the target named is T1, Sodium channel protein type 10 subunit alpha. The experiment in a line: Binding affinity to Nav1.8 (unknown origin) expressed in HEK293T cells assessed as retention time of compound at 1 mg/ml by cell membrane chromatography. The format is cell membranes.
Data set [4] deals with Mus musculus. The data set can be described thus: Analgesic effect in ICR mouse model of CFA-induced chronic inflammatory pain assessed as increase in paw withdrawal threshold at 0.07 mmol/kg, ip measured upto 90 mins by Von Frey test. The format is functional, organism-based.
Data set [5] concerns the target T1, Sodium channel protein type 10 subunit alpha. The experiment in a line: Binding affinity to Nav1.8 (unknown origin) expressed in HEK293T cells at 1 mg/ml by cell membrane chromatography. The format is cell membranes.
Data set [6] addresses GABA-A receptor; alpha-1/beta-2/gamma-2 (Homo sapiens) (UniProt P14867+P47870+P18507). The data set can be described thus: Agonist activity at alpha1beta2gamma2 GABA-A receptor (unknown origin) at 10 uM at -70 mV holding potential by electrophysiological recording. The format is protein-complex assay. To be noted: filed as agonist.
Data set [7] concerns Mus musculus. The experiment in a line: Anesthetic effect in iv dosed ICR mouse by up-and-down method. In kind it is functional.
Data set [8] is described as follows: Toxicity in ICR mouse assessed as survival rate at 1.5 times ED50 administered intravenously. To be noted: in vivo, route iv.

Active and inactive are the calls of the source.

For `COCCN(CCOC)CC(=O)Oc1c(C(C)C)cccc1C(C)C.Cl`, in data set [1], the t1/2 came out at 6.712 min. For the compound `CCN1CCN(CCOC(=O)Oc2c(C(C)C)cccc2C(C)C)CC1.Cl`, the t1/2 in data set [1] amounted to 4.684 min.

Consider `Cc1nccn1Cc1ccc(C(=O)c2c(C(C)C)cccc2C(C)C)o1`, for which the inhibition entry in data set [2] is “Active”. Still for that read-out and setting: the entry for `CC(C)c1cccc(C(C)C)c1C(=O)c1ccc2c(CN(C)C)c[nH]c2c1` is “Active”.

In the case of `CC(C)c1cccc(C(C)C)c1OC(=O)OCCN1CCN(C(C)C)CC1.Cl`, the t1/2 in data set [1] was above 120 min. For the compound `CC1CC(C)CN(CCCOC(=O)Oc2c(C(C)C)cccc2C(C)C)C1.Cl` (configuration not stated), in data set [1], the t1/2 is 3.428 min. Take `COCCN(CCOC)CCOC(=O)Oc1c(C(C)C)cccc1C(C)C.Cl`: the t1/2 in data set [1] came to 6.925 min. On the same count and under the same terms, the value for `CC(C)c1cccc(C(C)C)c1OC(=O)CN1CCSCC1.Cl` was 22.97 min. Consider `CC(C)c1cccc(C(C)C)c1OC(=O)OCCN1CCCCC1`, for which the Retention time in data set [3] was determined as 1 min. On to `CC(C)c1cccc(C(C)C)c1OC(=O)CN1CCN(CCO)CC1.Cl`, for which the t1/2 in data set [1] is listed as above 120 min. Regarding `CCCN(CCO)CCOC(=O)Oc1c(C(C)C)cccc1C(C)C.Cl`, the t1/2 in data set [1] is reported as below 8.609 min. Consider `CC1CN(CCCOC(=O)Oc2c(C(C)C)cccc2C(C)C)CC(C)O1` (configuration not stated), for which the Retention time in data set [3] turned out to be 12.4 min. On to `CC1CC(C)CN(CC(=O)Oc2c(C(C)C)cccc2C(C)C)C1` (configuration not stated), for which the Retention time in data set [3] is above 110 min.

On to `CC(C)c1cccc(C(C)C)c1OC1CCN(c2ccc(C(=O)O)cc2)CC1`, for which the inhibition entry in data set [2] is “Active”. Take `COc1cc(-c2cc(C(=O)O)n[nH]2)ccc1Oc1c(C(C)C)cccc1C(C)C`: the inhibition result in data set [2] was “Active”.

Consider `CC1CN(CCOC(=O)Oc2c(C(C)C)cccc2C(C)C)CC(C)O1` (configuration not stated), for which the Retention time in data set [3] is 11.8 min.

`CC1CN(CC(=O)Oc2c(C(C)C)cccc2C(C)C)CC(C)O1.Cl` (configuration not stated): the t1/2 in data set [1] is reported as 7.227 min. Besides, in data set [3], the Retention time is 0.5 min. Consider `CC(C)c1cccc(C(C)C)c1OC(=O)CN1CCOCC1`, for which, in data set [3], the Retention time worked out at 0.5 min. `CCN1CCN(CC(=O)Oc2c(C(C)C)cccc2C(C)C)CC1.Cl`: the t1/2 in data set [1] is above 120 min.

As for `CC(C)c1cccc(C(C)C)c1OC(=O)CCN1CCOCC1`, in data set [3], the Retention time turned out to be 0.9 min.

On to `CC(C)c1cccc(C(C)C)c1OC(=O)OCCN1CCSCC1.Cl`, for which the t1/2 in data set [1] is on record as 4.03 min. Consider `CC(C)c1cccc(C(C)C)c1C(=O)c1ccc(N(C)CCS(=O)(=O)O)cc1`, for which the outcome (in the data set on Mus musculus [4]; in data set [5]) was Active. The inhibition entry in data set [2] was “Active”. As to `CC(C)c1cccc(C(C)C)c1OC(=O)CCN1CCN(C(C)C)CC1.Cl`, in data set [1], the t1/2 is above 120 min. `CC(C)c1cccc(C(C)C)c1OC(=O)CN1CCOCC1C` (configuration not stated): the Retention time in data set [3] was determined as 0.8 min. In the case of `CC1CC(C)CN(CCOC(=O)Oc2c(C(C)C)cccc2C(C)C)C1.Cl` (configuration not stated), in data set [1], the t1/2 stood at 9.305 min. Besides, the Retention time in data set [3] is above 110 min. Regarding `CC(C)c1cccc(C(C)C)c1O`, the result in the data set with Mus musculus [4] was inactive. Besides, in data set [6], the result was Active. Turning to `COc1ccc(CNc2c(C(C)C)cccc2C(C)C)cc1OCC(N)=O`, the inhibition result in data set [2] is “Active”. For the compound `CC(C)c1cccc(C(C)C)c1OC(=O)CN1CCN(C(C)C)CC1.Cl`, in data set [1], the t1/2 is recorded as above 120 min. Turning to `CC1CN(CCC(=O)Oc2c(C(C)C)cccc2C(C)C)CC(C)O1.Cl` (configuration not stated), the t1/2 in data set [1] is recorded as 1.429 min. In addition, in data set [3], the Retention time worked out at 3.1 min. For the compound `CC(C)c1cccc(C(C)C)c1Oc1ccc(C[C@@H](N)C(N)=O)cc1`, the inhibition result in data set [2] is “Active”. Take `CCN(CC)CCC(=O)Oc1c(C(C)C)cccc1C(C)C.Cl`: in data set [1], the t1/2 was 3.288 min. For the same compound, the Retention time in data set [3] is 18.5 min. Besides, it took a dose of 64 µmol/kg to reach the 50% effect level in the data set on Mus musculus [7] (ED50). The outcome in the data set on Mus musculus [4] was Active. Also, the survival in data set [8] turned out to be 100%. With `CCN1CCN(CCC(=O)Oc2c(C(C)C)cccc2C(C)C)CC1.Cl`, the t1/2 in data set [1] was above 120 min. As to `CC(C)c1cccc(C(C)C)c1OC(=O)CN1CCCCC1`, the outcome with Mus musculus [4] was Active. For the same compound, in data set [8], the survival amounted to 100%. For the compound `CC(C)c1cccc(C(C)C)c1C(=O)CSc1cccc[n+]1[O-]`, in data set [2], the inhibition entry was “Active”. For the compound `Cc1cc(C(=O)c2c(C(C)C)cccc2C(C)C)ccc1N1C(=O)C=CC1=O`, in data set [2], the inhibition entry was “Active”. Take `CCN(CC)CC(=O)Oc1c(C(C)C)cccc1C(C)C.Cl`: in data set [1], the t1/2 amounted to 4.07 min. The Retention time in data set [3] came to 11.4 min. Further, the ED50 – broadly, the midpoint of the dose-response relation – with Mus musculus [7] is 77 µmol/kg. The outcome with Mus musculus [4] was Active. Further, in data set [8], the survival was determined as 100%. `Cc1cc(COc2c(C(C)C)cccc2C(C)C)cc(C)c1CN`: the inhibition result in data set [2] was “Active”. On to `CC(C)c1cccc(C(C)C)c1OC(=O)OCCN1CCN(CCO)CC1.Cl`, for which, in data set [1], the t1/2 was 63.54 min.

For `Cc1cc(F)ccc1Oc1cc(C(F)(F)F)ccc1C(=O)Nc1ccn(COP(=O)(O)O)c(=O)c1`, the Retention time in data set [3] is 2.6 min.

`CC(C)c1cccc(C(C)C)c1OC(=O)CN1CCS(=O)(=O)CC1.Cl`: the t1/2 in data set [1] is listed as above 30 min. As to `CCN(CC)CCCOC(=O)Oc1c(C(C)C)cccc1C(C)C.Cl`, the t1/2 in data set [1] is listed as below 8.609 min. Moreover, in data set [3], the Retention time amounted to 37.1 min.

Values taken from ChEMBL document CHEMBL5523756, “Molecular Transformers: Adaptive Multitarget Ligands for Esterase-Induced Transition from Analgesics to Anesthetics” (J Med Chem, 2024).
